Laboratory results published in the supplement of paper PMC10331698.
± gives the standard deviation of the averaged measurements.

Experiments:
Test in all cases: level (log10 ratio to DMSO vehicle control); higher = higher biomarker level / cell amount than vehicle control
Conditions in all cases: in DMSO
[1] = compound: CNS(=O)(=O)C(F)(F)C(F)(F)C(F)(F)C(F)(F)C(F)(F)C(F)(F)C(F)(F)C(F)(F)F [N-Methylperfluorooctanesulfonamide]
Procedure: (§1)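 BioMAP Diversity Plus panel of 12 human primary cell co-culture systems (3C, 4H, LPS, SAg, BT, BF4T, BE3C, CASM3C, HDF3CGF, KF3CT, MyoF, Mphg). Compounds were added 1 h before stimulation and left for 24 h (MyoF 48 h; BT 72 h for soluble read-outs or 6 d for IgG). Biomarkers were read by ELISA, cytotoxicity by SRB, PBMC viability and proliferation by Alamar Blue. Each well value was divided by the mean of 8 DMSO control wells on the same plate and log10 transformed; duplicate blinded samples were tested at 4 concentrations.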

[2] = compound: O=P(O)(O)CCC(F)(F)C(F)(F)C(F)(F)C(F)(F)C(F)(F)C(F)(F)C(F)(F)C(F)(F)F [((Perfluorooctyl)ethyl)phosphonic acid]
Procedure: as §1

[3] = compound: O=C(O)C(F)(F)C(F)(F)C(F)(F)C(F)(F)C(F)(F)C(F)(F)C(F)(F)C(F)(F)C(F)(F)C(F)(F)C(F)(F)C(F)(F)F [Perfluorotridecanoic acid]
Procedure: as §1

[4] = compound: OCC(F)(F)C(F)(F)C(F)(F)F [1H,1H-Heptafluorobutanol]
Procedure: as §1

[5] = compound: O=C(O)CCC(F)(F)C(F)(F)C(F)(F)C(F)(F)C(F)(F)F [2H,2H,3H,3H-Perfluorooctanoic acid]
Procedure: as §1

[6] = compound: O=C(O)C(F)(F)C(F)(F)C(F)(F)C(F)(F)C(F)(F)F [Perfluorohexanoic acid]
Procedure: as §1

Test System	level (log10) ([1]; 6700 nM)	level (log10) ([1]; 20000 nM)	level (log10) ([1]; 60000 nM)	level (log10) ([2]; 6700 nM)	level (log10) ([2]; 20000 nM)	level (log10) ([2]; 60000 nM)	level (log10) ([3]; 1500 nM)	level (log10) ([3]; 4400 nM)	level (log10) ([3]; 13000 nM)	level (log10) ([3]; 40000 nM)	level (log10) ([4]; 6700 nM)	level (log10) ([4]; 20000 nM)	level (log10) ([4]; 60000 nM)	level (log10) ([5]; 6700 nM)	level (log10) ([5]; 20000 nM)	level (log10) ([5]; 60000 nM)	level (log10) ([6]; 6700 nM)	level (log10) ([6]; 20000 nM)	level (log10) ([6]; 60000 nM)
LPS:IL-1alpha	0.0405 ± 0.071	0.107 ± 0.067	0.124 ± 0.078	-0.0215 ± 0.043	-0.0045 ± 0.029	-0.024 ± 0.13	0.0655 ± 0.088	-0.0155 ± 0.06	0.0405 ± 0.042	0.0445 ± 0.018	-0.028 ± 0.025	-0.068 ± 0.0085	0.0095 ± 0.015	0.0025 ± 0.00071	0.029 ± 0.035	0.0415 ± 0.00071	0.0135 ± 0.0064	0.0145 ± 0.0092	-0.003 ± 0.02
4H:CCL2/MCP-1	0.002 ± 0.017	-0.064 ± 0.017	-0.103 ± 0.027	-0.01 ± 0.0042	-0.0135 ± 0.022	0.004 ± 0.042	0.0035 ± 0.037	-0.0025 ± 0.026	-0.0095 ± 0.0092	-0.033 ± 0.014	0.0015 ± 0.0035	-0.0025 ± 0.00071	0.0125 ± 0.026	0.009 ± 0.0042	-0.008 ± 0.0057	0.0025 ± 0.0064	-0.0105 ± 0.00071	-0.027 ± 0.0071	0.012 ± 0.021
LPS:CD69	-0.068 ± 0.016	-0.0725 ± 0.0092	-0.0725 ± 0.0035	-0.04 ± 0.0042	-0.032 ± 0.018	-0.0305 ± 0.023	0.002 ± 0.034	-0.0545 ± 0.053	-0.0455 ± 0.044	-0.069 ± 0.025	-0.016 ± 0.021	-0.0245 ± 0.021	-0.0075 ± 0.0035	-0.0475 ± 0.084	-0.076 ± 0.052	-0.135 ± 0.051	0.0025 ± 0.0078	-0.0165 ± 0.0021	-0.0295 ± 0.013
BT:sIL-17F	0.016 ± 0.18	0.066 ± 0.56	-0.385 ± 0.26	-0.094 ± 0.081	0.035 ± 0.025	-0.0045 ± 0.088	-0.0115 ± 0.1	-0.02 ± 0.048	0.0775 ± 0.067	0.004 ± 0.09	-0.007 ± 0.035	-0.0425 ± 0.29	-0.0385 ± 0.032	-0.016 ± 0.058	-0.0575 ± 0.059	-0.01 ± 0.064	-0.081 ± 0.0014	-0.002 ± 0.081	-0.047 ± 0.031
BT:PBMC Cytotoxicity	0.0045 ± 0.019	0.016 ± 0.0099	0.0445 ± 0.011	0.0055 ± 0.00071	0 ± 0.0057	0.0095 ± 0.015	-0.0035 ± 0.00071	0.0245 ± 0.005	0.018 ± 0.011	0.0165 ± 0.029	0.0095 ± 0.026	-0.015 ± 0.0099	0.0105 ± 0.015	0.03 ± 0.021	0.0185 ± 0.033	0.019 ± 0.017	-0.024 ± 0.028	-0.0405 ± 0.028	0.004 ± 0.0057
SAg:CCL2/MCP-1	-0.0205 ± 0.0035	-0.003 ± 0.011	-0.004 ± 0.0085	0.006 ± 0.0042	0.004 ± 0.016	-0.0195 ± 0.053	-0.013 ± 0.016	-0.0275 ± 0.0035	-0.0265 ± 0.0064	0.005 ± 0.014	0.0075 ± 0.019	0.0065 ± 0.025	0.008 ± 0.05	-0.005 ± 0.0085	-0.007 ± 0.02	-0.019 ± 0.025	-0.01 ± 0.0057	-0.0255 ± 0.0078	0.0135 ± 0.018
BE3C:CXCL10/IP-10	-0.0415 ± 0.026	-0.0475 ± 0.0064	-0.0795 ± 0.049	-0.0055 ± 0.0064	-0.001 ± 0.0099	-0.0045 ± 0.0078	-0.0015 ± 0.029	-0.019 ± 0.027	-0.038 ± 0.03	-0.0365 ± 0.056	0.0345 ± 0.023	0.0195 ± 0.035	0.0265 ± 0.032	-0.009 ± 0.0042	-0.006 ± 0.0028	-0.0075 ± 0.005	0.0095 ± 0.018	0.0125 ± 0.0092	0.0245 ± 0.011
